In ChEMBL document CHEMBL1649358, “Induced production of bromomethylchlamydosporols A and B from the marine-derived fungus Fusarium tricinctum” (2010):
Converted amounts (≈) assume the structure as drawn.

Experiments:
Type in all cases: functional
Staphylococcus aureus [1] = assay: Antibacterial activity against Staphylococcus aureus ATCC 29213 after 18 hrs by broth dilution method; settings: ATCC 29213, 18 h
Staphylococcus aureus [2] = assay: Antibacterial activity against multidrug-resistant Staphylococcus aureus CCARM 3089 after 18 hrs by broth dilution method; settings: CCARM 3089, 18 h
Staphylococcus aureus [3] = assay: Antibacterial activity against methicillin-resistant Staphylococcus aureus CCARM 3167 after 18 hrs by broth dilution method; settings: CCARM 3167, 18 h

COc1c2c(oc(=O)c1Br)C(C)(Br)[C@](C)(OC)OC2 (some centres not stated) [BROMOMETHYLCHLAMYDOSPOROL B]
MIC (Staphylococcus aureus [1]): 15.6 µg/mL (≈ 39.2 µM)
MIC (Staphylococcus aureus [2]): 15.6 µg/mL (≈ 39.2 µM)
MIC (Staphylococcus aureus [3]): 15.6 µg/mL (≈ 39.2 µM)

C/C=C(\C)[C@H]1[C@@H](/C=C/C=C(\C)[C@@H](O)[C@@H](C)CO)[C@@H]2C[C@@H]3O[C@]3(C)C[C@H]2[C@@H]2O[C@@]21C [FUSARIELIN A]
MIC (Staphylococcus aureus [1]): 31.5 µg/mL (≈ 78.2 µM)
MIC (Staphylococcus aureus [2]): 62.5 µg/mL (≈ 155 µM)
MIC (Staphylococcus aureus [3]): 31.5 µg/mL (≈ 78.2 µM)

COc1cc(=O)oc2c1CO[C@@](C)(OC)[C@@]2(C)Br [BROMOMETHYLCHLAMYDOSPOROL A]
MIC (Staphylococcus aureus [1]): 15.6 µg/mL (≈ 48.9 µM)
MIC (Staphylococcus aureus [2]): 15.6 µg/mL (≈ 48.9 µM)
MIC (Staphylococcus aureus [3]): 15.6 µg/mL (≈ 48.9 µM)

COc1cc(=O)oc2c1COC(C)(O)[C@H]2C (mixture of isomers) [CHLAMYDOSPOROL]
MIC (Staphylococcus aureus [1]): 31.5 µg/mL
MIC (Staphylococcus aureus [2]): 62.5 µg/mL
MIC (Staphylococcus aureus [3]): 31.5 µg/mL
